According to patent publication US7348425B2, “Inhibitors of HCV replication” (Bristol-Myers Squibb Company, priority 2004, dated 2008):
pEC50, pIC50: −log10 of the molar value.

What was measured:
[1] = target: T1, HCV NS5B RdRp genotype 1b (Hepatitis C virus genotype 1b, UniProt Q9WMX2); experiment: Modified HCV NS5B RdRp enzyme assay (with preincubation); assay type: biochemical
T1 construct: The protein was expressed with an 18 amino acid C-terminal truncation to enhance the solubility; made in house; host or cells: E. coli BL21 (DE3), pET21a
T1 sequence (Q9WMX2 2420-2992): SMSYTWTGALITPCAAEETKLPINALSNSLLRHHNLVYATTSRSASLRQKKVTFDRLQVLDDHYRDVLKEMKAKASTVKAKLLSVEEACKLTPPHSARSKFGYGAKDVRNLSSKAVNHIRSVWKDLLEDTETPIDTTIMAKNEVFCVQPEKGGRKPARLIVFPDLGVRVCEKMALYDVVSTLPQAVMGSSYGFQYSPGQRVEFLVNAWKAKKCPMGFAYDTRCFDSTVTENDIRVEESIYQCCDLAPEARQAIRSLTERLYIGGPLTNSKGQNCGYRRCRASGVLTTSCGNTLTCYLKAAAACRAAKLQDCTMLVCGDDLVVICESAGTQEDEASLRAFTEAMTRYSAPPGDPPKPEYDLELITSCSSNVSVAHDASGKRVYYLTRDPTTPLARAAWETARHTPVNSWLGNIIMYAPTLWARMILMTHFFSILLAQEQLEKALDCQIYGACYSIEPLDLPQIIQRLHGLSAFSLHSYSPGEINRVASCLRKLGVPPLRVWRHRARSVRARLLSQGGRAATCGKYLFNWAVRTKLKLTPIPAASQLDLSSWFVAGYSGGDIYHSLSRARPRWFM
How it was run: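 C-terminally truncated (Δ18) genotype 1b NS5B from E. coli was preincubated (14 nM) with compound, then reaction started with polyA template (0.2 nM), ³H-UTP (0.29 μM) and dT12 primer (20 nM) precaptured on SPA beads. Reaction ran 4 h at 30 °C in pH 7.5 Hepes buffer with 2% DMSO. IC50 came from seven concentrations.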

HCV replicon = HCV replicon FRET assay; assay type: cell-based; details: Hepatitis C virus; FRET assay; read-out: EC50
How it was run: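 Replicon cells (± Renilla luciferase reporter) incubated with titrated compound at 37 °C; NS3 protease activity read by FRET peptide cleavage (20 uM EDANS/DABCYL substrate, 340/490 nm kinetic) or luciferase.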

[2] = modified method (with preincubation)

Row | Compound | pIC50 ([1]; preincubation protocol) | pEC50 (HCV replicon) | pIC50 [1, 2]
1 | COc1ccc2c(c1)C=C(C(=O)N1CCOCC1)Cn1c-2c(C2CCCCC2)c2ccc(C(=O)NS(=O)(=O)C3CC3)cc21 | 6.00 to 8.00 | 6.00 to 7.30 | 
2 | COc1ccc2c(c1)C=C(C(=O)N1CCC[C@@H](O)C1)Cn1c-2c(C2CCCCC2)c2ccc(C(=O)NS(=O)(=O)N(C)C)cc21 | 6.00 to 8.00 | 6.00 to 7.30 | 
3 | C[C@@H]1CN(C(=O)C2(F)Cc3ccccc3-c3c(C4CCCCC4)c4ccc(C(=O)O)cc4n3C2)C[C@H](O)O1 (stereo partly drawn) | 6.00 to 8.00 | 5.00 to 6.00 | 
4 | COc1ccc2c(c1)C=C(C(=O)N1CC(C)NC(C)C1)Cn1c-2c(C2CCCCC2)c2ccc(C(=O)NS(=O)(=O)N(C)C)cc21 (stereo not drawn) | 6.00 to 8.00 | 6.00 to 7.30 | 
5 | COc1ccc2c(c1)C=C(C(=O)N1CC[C@@H](O)C1)Cn1c-2c(C2CCCCC2)c2ccc(C(=O)NS(=O)(=O)N(C)C)cc21 | 6.00 to 8.00 | 6.00 to 7.30 | 
6 | COc1ccc2c(c1)C=C(C(=O)N1CCC[C@H](O)C1)Cn1c-2c(C2CCCCC2)c2ccc(C(=O)NS(=O)(=O)N(C)C)cc21 | 6.00 to 8.00 | 6.00 to 7.30 | 
7 | O=C(O)c1ccc2c(C3CCCCC3)c3n(c2c1)C(C(=O)N1CCOCC1)CNc1ccccc1-3 (stereo not drawn) | < 6.00 | 5.00 to 6.00 | 
8 | COC(=O)c1ccc2c(C3CCCCC3)c3n(c2c1)CC(CO)=Cc1ccccc1-3 | < 6.00 | 6.00 to 7.30 | 
9 | COc1ccc2c(c1)C=C(C(=O)N1[C@H](C)CC[C@H]1C)Cn1c-2c(C2CCCCC2)c2ccc(C(=O)NS(=O)(=O)N(C)C)cc21 | 6.00 to 8.00 | 6.00 to 7.30 | 
10 | CCN(C)C(=O)C1=Cc2cc(OC)ccc2-c2c(C3CCCCC3)c3ccc(C(=O)NS(=O)(=O)N(C)C)cc3n2C1 | 6.00 to 8.00 | 6.00 to 7.30 | 
11 | C[C@@H]1CN(C(=O)C2=Cc3ccccc3-c3c(C4CCCCC4)c4ccc(C(=O)NC5(C(=O)Nc6ccc(-c7cnco7)cc6)CCCC5)cc4n3C2)C[C@H](C)O1 | 6.00 to 8.00 | 6.00 to 7.30 | 
12 | C[C@@H]1CN(C(=O)C2=Cc3ccccc3-c3c(C4CCCCC4)c4ccc(C(=O)NC5(C(=O)Nc6ccc(-n7cncn7)cc6)CCCC5)cc4n3C2)C[C@H](C)O1 | 6.00 to 8.00 | 6.00 to 7.30 | 
13 | Cc1cc(CNC(=O)c2ccc3c(C4CCCCC4)c4n(c3c2)CC(C(=O)N2C[C@@H](C)O[C@@H](C)C2)=Cc2ccccc2-4)n[nH]1 | 6.00 to 8.00 | 6.00 to 7.30 | 
14 | COc1ccc2c(c1)C=C(C(=O)N1CCOC(CN(C)C)C1)Cn1c-2c(C2CCCCC2)c2ccc(C(=O)NS(=O)(=O)N(C)C)cc21 (stereo not drawn) | 6.00 to 8.00 | 6.00 to 7.30 | 
15 | COc1ccc2c(c1)C=C(C(=O)N1CCC(O)CC1)Cn1c-2c(C2CCCCC2)c2ccc(C(=O)NS(=O)(=O)N(C)C)cc21 | 6.00 to 8.00 | 6.00 to 7.30 | 
16 | COc1ccc2c(c1)C(=O)n1c-2c(C2CCCCC2)c2ccc(C(=O)NS(=O)(=O)N(C)C)cc21 | 6.00 to 8.00 | 5.00 to 6.00 | 
17 | COC(=O)c1ccc2c(C3CCCCC3)c3n(c2c1)CC(C(=O)N1C[C@@H](C)O[C@@H](C)C1)=Cc1cc(F)ccc1-3 | < 6.00 | 5.00 to 6.00 | 
18 | C[C@@H]1CN(C(=O)C2=Cc3cc(F)ccc3-c3c(C4CCCCC4)c4ccc(C(=O)O)cc4n3C2)C[C@H](C)O1 | 6.00 to 8.00 | 6.00 to 7.30 | 
19 | C[C@@H]1CN(C(=O)C2=Cc3cc(F)ccc3-c3c(C4CCCCC4)c4ccc(C(=O)NS(=O)(=O)N(C)C)cc4n3C2)C[C@H](C)O1 | 6.00 to 8.00 | 6.00 to 7.30 | 
20 | COC(=O)c1ccc2c(C3CCCCC3)c3n(c2c1)CC(C(=O)N1C[C@@H](C)N[C@@H](C)C1)=Cc1cc(F)ccc1-3 | 6.00 to 8.00 | 5.00 to 6.00 | 
21 | C[C@@H]1CN(C(=O)C2=Cc3cc(F)ccc3-c3c(C4CCCCC4)c4ccc(C(=O)O)cc4n3C2)C[C@H](C)N1 | 6.00 to 8.00 | 6.00 to 7.30 | 
22 | COC(=O)c1ccc2c(C3CCCCC3)c3n(c2c1)C(C(=O)N1CCOCC1)CCc1ccccc1-3 (stereo not drawn) | < 4.90 | 6.00 to 7.30 | 
23 | C[C@@H]1CN(C(=O)C2=Cc3ccccc3-c3c(C4CCCCC4)c4ccc(C(=O)NC5(C(=O)Nc6ncc(-c7ccc(C(=O)O)cc7)s6)CCCC5)cc4n3C2)C[C@H](C)O1 | 6.00 to 8.00 | 6.00 to 7.30 | 
24 | C[C@@H]1CN(C(=O)C2=Cc3ccccc3-c3c(C4CCCCC4)c4ccc(C(=O)NC5(C(=O)Nc6nccs6)CCCC5)cc4n3C2)C[C@H](C)O1 | 6.00 to 8.00 | 6.00 to 7.30 | 

Row | Compound | pIC50 ([1]; preincubation protocol) | pEC50 (HCV replicon) | pIC50 [1, 2]
25 | O=C(O)c1ccc2c(C3CCCCC3)c3n(c2c1)C(C(=O)N1CCOCC1)CCc1ccccc1-3 (stereo not drawn) | < 4.90 | < 5.48 | 
26 | COc1ccc2c(c1)C=C(C(=O)N(C)CCO)Cn1c-2c(C2CCCCC2)c2ccc(C(=O)NS(=O)(=O)N(C)C)cc21 | > 7.70 | 6.00 to 7.30 | 
27 | COc1ccc2c(c1)C=C(C(=O)N(CCO)CCO)Cn1c-2c(C2CCCCC2)c2ccc(C(=O)NS(=O)(=O)N(C)C)cc21 | > 7.70 | 6.00 to 7.30 | 
28 | C[C@@H]1CN(C(=O)C2=Cc3ccccc3-c3c(C4CCCCC4)c4ccc(C(=O)NC5(C(=O)O)CCCC5)cc4n3C2)C[C@H](C)O1 | 6.00 to 8.00 | 6.00 to 7.30 | 
29 | COc1ccc2c(c1)CC(C(=O)N1C[C@@H](C)N[C@@H](C)C1)Cn1c-2c(C2CCCCC2)c2ccc(C(=O)NS(=O)(=O)N(C)C)cc21 (stereo partly drawn) | 6.00 to 8.00 | 6.00 to 7.30 | 
30 | C[C@@H]1CN(C(=O)C2=Cc3cc(F)ccc3-c3c(C4CCCCC4)c4ccc(C(=O)NS(=O)(=O)N(C)C)cc4n3C2)C[C@H](C)N1 | 6.00 to 8.00 | 6.00 to 7.30 | 
31 | COc1ccc2c(c1)CC(C(=O)N(CCO)CCO)Cn1c-2c(C2CCCCC2)c2ccc(C(=O)NS(=O)(=O)N(C)C)cc21 (stereo not drawn) | 6.00 to 8.00 | 6.00 to 7.30 | 
32 | COc1ccc2c(c1)CC(C(=O)N(C)CCO)Cn1c-2c(C2CCCCC2)c2ccc(C(=O)NS(=O)(=O)N(C)C)cc21 (stereo not drawn) | 6.00 to 8.00 | 6.00 to 7.30 | 
33 | CNS(=O)(=O)NC(=O)c1ccc2c(C3CCCCC3)c3n(c2c1)CC(C(=O)N1C[C@@H](C)O[C@@H](C)C1)=Cc1cc(F)ccc1-3 | 6.00 to 8.00 | 6.00 to 7.30 | 
34 | CNCCNC(=O)c1ccc2c(C3CCCCC3)c3n(c2c1)CC(C(=O)N1C[C@@H](C)O[C@@H](C)C1)=Cc1ccccc1-3 | 6.00 to 8.00 | 6.00 to 7.30 | 
35 | CNS(=O)(=O)NC(=O)c1ccc2c(C3CCCCC3)c3n(c2c1)CC(C(=O)N1C[C@@H](C)O[C@@H](C)C1)Cc1ccccc1-3 (stereo partly drawn) | 6.00 to 8.00 | 6.00 to 7.30 | 
36 | COC(=O)C1=Cc2c(OC)cccc2-c2c(C3CCCCC3)c3ccc(C(=O)OC)cc3n2C1 | < 5.40 | < 5.48 | 
37 | COC(=O)c1ccc2c(C3CCCCC3)c3n(c2c1)CC(C(=O)O)=Cc1c(OC)cccc1-3 | 5.00 to 6.00 | 5.00 to 6.00 | 
38 | COC(=O)c1ccc2c(C3CCCCC3)c3n(c2c1)CC(C(=O)N1C[C@@H](C)O[C@@H](C)C1)=Cc1cc(OC)ncc1-3 | < 6.00 | < 6.00 | 
39 | COc1cccc2c1C=C(C(=O)N1C[C@@H](C)O[C@@H](C)C1)Cn1c-2c(C2CCCCC2)c2ccc(C(=O)O)cc21 | 6.00 to 8.00 | 6.00 to 7.30 | 
40 | COc1cccc2c1C=C(C(=O)N1C[C@@H](C)O[C@@H](C)C1)Cn1c-2c(C2CCCCC2)c2ccc(C(=O)NS(=O)(=O)N(C)C)cc21 | 6.00 to 8.00 | 6.00 to 7.30 | 
41 | COC(=O)c1ccc2c(C3CCCCC3)c3n(c2c1)C(O)c1cc(OC)ccc1-3 (stereo not drawn) | < 6.00 | < 7.00 | 
42 | COC(=O)c1ccc2c(C3CCCCC3)c3n(c2c1)C(O)c1cc(OCc2ccccc2)ccc1-3 (stereo not drawn) | 5.00 to 6.00 | < 7.00 | 
43 | COC(=O)/C=C/c1ccc(NC(=O)C2(NC(=O)c3ccc4c(C5CCCCC5)c5n(c4c3)CC(=O)Nc3cccnc3-5)CCCC2)cc1 [drawing 159] |  | > 7.00 | 6.00 to 7.70
44 | O=C(O)/C=C/c1ccc(NC(=O)C2(NC(=O)c3ccc4c(C5CCCCC5)c5n(c4c3)CCCc3ccccc3-5)CCNCC2)cc1 [drawing 160] |  | 6.00 to 8.00 | 6.00 to 7.70
45 | COC(=O)c1ccc2c(C3CCCCC3)c3n(c2c1)CC(C(=O)OCc1ccccc1)=Cc1ccccc1-3 [drawing 223] |  | 5.00 to 6.00 | < 6.00
46 | O=C(NS(=O)(=O)C1CC1)c1ccc2c(C3CCCCC3)c3n(c2c1)CC(C(=O)N1CCOCC1)Cc1ccccc1-3 (stereo not drawn) [drawing 287] |  | 6.00 to 8.00 | 6.00 to 7.70
47 | CS(=O)(=O)NC(=O)c1ccc2c(C3CCCCC3)c3n(c2c1)CC(C(=O)N1CCOCC1)Cc1ccccc1-3 (stereo not drawn) [drawing 303] |  | 6.00 to 8.00 | 6.00 to 7.70
48 | O=C(O)c1ccc2c(C3CCCCC3)c3n(c2c1)CC(C(=O)O)Cc1ccccc1-3 (stereo not drawn) [drawing 305] |  | < 5.00 | 6.00 to 7.70
